One assay has as its target CK1ε (Homo sapiens, UniProt P49674). Nature of the assay: CK1ε kinase assay (Caliper LabChip electrophoretic separation of fluoresceinated peptide substrate and product). It counts as biochemical. To be noted: 200 pM CK1ε, 50 μM ATP, 1.5 μM peptide, 22 hours at room temperature; read-out: CK1ε IC50 range. A digest of the protocol: (§1)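 Incubated for twenty-two hours at ambient temperature, then quenched with EDTA and analyzed by electrophoretic separation of unphosphorylated and phosphorylated peptide.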

The next assay deals with CK1δ (Homo sapiens, UniProt P48730). Nature of the assay: CK1δ kinase assay (Caliper LabChip electrophoretic separation of fluoresceinated peptide substrate and product). It is filed as biochemical. Particulars: 200 pM CK1δ, 50 μM ATP, 1.5 μM peptide, 22 hours at room temperature; read-out: CK1δ IC50 range. In outline:
as §1

Structures are written as SMILES.

Sequence of CK1δ (P48730 whole entry): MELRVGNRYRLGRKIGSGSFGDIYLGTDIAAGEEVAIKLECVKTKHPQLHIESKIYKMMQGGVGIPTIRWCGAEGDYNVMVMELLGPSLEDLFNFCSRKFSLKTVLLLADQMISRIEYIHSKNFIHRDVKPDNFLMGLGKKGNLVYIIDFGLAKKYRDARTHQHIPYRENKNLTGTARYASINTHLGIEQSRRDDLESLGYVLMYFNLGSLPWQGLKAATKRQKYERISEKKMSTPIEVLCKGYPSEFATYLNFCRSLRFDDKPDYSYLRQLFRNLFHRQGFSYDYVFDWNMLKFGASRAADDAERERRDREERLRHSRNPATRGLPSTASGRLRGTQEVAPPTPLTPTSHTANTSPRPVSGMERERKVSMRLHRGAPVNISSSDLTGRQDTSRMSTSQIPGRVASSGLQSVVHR
Sequence of CK1ε (P49674 whole entry): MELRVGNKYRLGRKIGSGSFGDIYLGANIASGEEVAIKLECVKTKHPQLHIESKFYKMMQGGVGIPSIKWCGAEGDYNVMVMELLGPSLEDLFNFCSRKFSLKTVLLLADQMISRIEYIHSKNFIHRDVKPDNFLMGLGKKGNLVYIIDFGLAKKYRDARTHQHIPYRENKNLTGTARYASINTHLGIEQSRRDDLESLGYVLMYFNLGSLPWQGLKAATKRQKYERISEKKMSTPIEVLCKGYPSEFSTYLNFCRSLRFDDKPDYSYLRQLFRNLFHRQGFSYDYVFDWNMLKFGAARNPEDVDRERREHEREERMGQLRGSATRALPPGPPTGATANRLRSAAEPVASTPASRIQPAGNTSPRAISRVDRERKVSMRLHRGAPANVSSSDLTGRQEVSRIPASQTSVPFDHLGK

One may read the IC50 as the concentration that gives 50% inhibition. `CC(C)(NC(=O)N1CCn2nc(-c3ccc(F)c(Cl)c3)c(C(N)=O)c2C1)C(=O)NC1CC1` [Compound 213, 2-(3-Chloro-4-fluorophenyl)-N^5-(1-(cyclopropylamino)-2-methyl-1-oxopropan-2-yl)-6,7-dihydropyrazolo[1,5-a]pyrazine-3,5(4H)-dicarboxamide]: the IC50 at CK1ε and at CK1δ was 10 to 100 nM throughout.

In the case of `CNC(=O)C(C)(C)NC(=O)N1CCn2nc(-c3ccc(F)c(Cl)c3)c(C(N)=O)c2C1` [Compound 214, 2-(3-Chloro-4-fluorophenyl)-N^5-(2-methyl-1-(methylamino)-1-oxopropan-2-yl)-6,7-dihydropyrazolo[1,5-a] pyrazine-3,5(4H)-dicarboxamide], the IC50 on CK1ε and at CK1δ was 10 to 100 nM throughout.

On to `CC(C)(NC(=O)N1CCn2nc(-c3ccc(F)c(Cl)c3)c(C(N)=O)c2C1)C(=O)N1CCCC1` [Compound 215, 2-(3-Chloro-4-fluorophenyl)-N^5-(2-methyl-1-oxo-1-(pyrrolidin-1-yl)propan-2-yl)-6,7-dihydropyrazolo [1,5-a]pyrazine-3,5(4H)-dicarboxamide], for which the figures for the IC50 on CK1ε and on CK1δ were 10 to 100 nM and 0.01 to 10 nM, respectively.

As for `CC(C)NC(=O)C(C)(C)NC(=O)N1CCn2nc(-c3ccc(F)c(Cl)c3)c(C(N)=O)c2C1` [Compound 216, 2-(3-Chloro-4-fluorophenyl)-N^5-(1-(isopropylamino)-2-methyl-1-oxopropan-2-yl)-6,7-dihydropyrazolo[1,5-a] pyrazine-3,5(4H)-dicarboxamide], the IC50 at CK1ε lay in the range of 100 to 2000 nM; at CK1δ, 10 to 100 nM.

For the molecule `COCCNC(=O)C(C)(C)NC(=O)N1CCn2nc(-c3ccc(F)c(Cl)c3)c(C(N)=O)c2C1` [Compound 217, 2-(3-Chloro-4-fluorophenyl)-N^5-(1-((2-methoxyethyl)amino)-2-methyl-1-oxopropan-2-yl)-6,7-dihydropyrazolo[1,5-a] pyrazine-3,5(4H)-dicarboxamide], the figures for the IC50 at CK1ε and on CK1δ were 100 to 2000 nM and 10 to 100 nM, respectively.

Take `CN(C)C(=O)C(C)(C)NC(=O)N1CCn2nc(-c3ccc(F)c(Cl)c3)c(C(N)=O)c2C1` [Compound 218, 2-(3-Chloro-4-fluorophenyl)-N^5-(1-(dimethylamino)-2-methyl-1-oxopropan-2-yl)-6,7-dihydropyrazolo[1,5-a] pyrazine-3,5(4H)-dicarboxamide]: the results for the IC50 on CK1ε and at CK1δ were 10 to 100 nM and 0.01 to 10 nM, respectively.

For `CC(C)(NC(=O)N1CCn2nc(-c3ccc(F)c(Cl)c3)c(C(N)=O)c2C1)C(N)=O` [Compound 219, N^5-(1-Amino-2-methyl-1-oxopropan-2-yl)-2-(3-chloro-4-fluorophenyl)-6,7-dihydropyrazolo[1,5-a] pyrazine-3,5(4H)-dicarboxamide], the IC50 at CK1ε and on CK1δ was 10 to 100 nM each time.

Regarding `N#CCC1(NC(=O)N2CCn3nc(-c4ccc(F)c(Cl)c4)c(C(N)=O)c3C2)CCC1` [Compound 220, 2-(3-Chloro-4-fluorophenyl)-N^5-(1-(cyanomethyl)cyclobutyl)-6,7-dihydro pyrazolo[1,5-a]pyrazine-3,5(4H)-dicarboxamide], the IC50 on CK1ε and at CK1δ was 0.01 to 10 nM each time.

`N#CCC1(NC(=O)N2CCn3nc(-c4cccc(Cl)c4)c(C(N)=O)c3C2)CCC1` [Compound 221, 2-(3-Chlorophenyl)-N^5-(1-(cyanomethyl)cyclobutyl)-6,7-dihydropyrazolo[1,5-a] pyrazine-3,5(4H)-dicarboxamide]: the IC50 at CK1ε and on CK1δ was 0.01 to 10 nM each time.

For the molecule `N#CCC1(NC(=O)N2CCn3nc(-c4ccc(Cl)c(Cl)c4)c(C(N)=O)c3C2)CCC1` [Compound 222, N^5-(1-(Cyanomethyl)cyclobutyl)-2-(3,4-dichlorophenyl)-6,7-dihydropyrazolo[1,5-a] pyrazine-3,5(4H)-dicarboxamide], the concentration for half-maximal inhibition (IC50) at CK1ε and at CK1δ was 0.01 to 10 nM each time.

On to `NC(=O)c1c(-c2ccc(Cl)c(Cl)c2)nn2c1CN(C(=O)NC1(COC(F)F)CCC1)CC2` [Compound 224, 2-(3,4-Dichlorophenyl)-N^5-(1-((difluoromethoxy)methyl)cyclobutyl)-6,7-dihydropyrazolo[1,5-a] pyrazine-3,5(4H)-dicarboxamide], for which the IC50 at CK1ε and at CK1δ was 0.01 to 10 nM each time.

With `NC(=O)c1c(-c2cccc(Cl)c2)nn2c1CN(C(=O)NC1(COC(F)F)CCC1)CC2` [Compound 225, 2-(3-Chlorophenyl)-N^5-(1-((difluoromethoxy)methyl)cyclobutyl)-6,7-dihydropyrazolo[1,5-a] pyrazine-3,5(4H)-dicarboxamide], the IC50 on CK1ε and on CK1δ was 0.01 to 10 nM in each case.

In the case of `CC(C)(NC(=O)N1CCn2nc(-c3ccc(F)c(Cl)c3)c(C(N)=O)c2C1)C1CC(F)(F)C1` [Compound 226, 2-(3-Chloro-4-fluorophenyl)-N^5-(2-(3,3-difluorocyclobutyl)propan-2-yl)-6,7-dihydropyrazolo[1,5-a]pyrazine-3,5(4H)-dicarboxamide], the IC50 on CK1ε and at CK1δ was 0.01 to 10 nM in each case.

On to `CC(C)(NC(=O)N1CCn2nc(-c3cccc(Cl)c3)c(C(N)=O)c2C1)C1CC(F)(F)C1` [Compound 227, 2-(3-Chlorophenyl)-N^5-(2-(3,3-difluorocyclobutyl)propan-2-yl)-6,7-dihydropyrazolo[1,5-a] pyrazine-3,5(4H)-dicarboxamide], for which the IC50 at CK1ε and on CK1δ was 0.01 to 10 nM throughout.

Consider `CC1(CNC(=O)N2CCn3nc(-c4ccc(F)c(Cl)c4)c(C(N)=O)c3C2)CC(F)(F)C1` [Compound 229, 2-(3-Chloro-4-fluorophenyl)-N^5-((3,3-difluoro-1-methylcyclobutyl)methyl)-6,7-dihydropyrazolo[1,5-a]pyrazine-3,5(4H)-dicarboxamide], for which the IC50 at CK1ε and at CK1δ was 0.01 to 10 nM each time.

For the molecule `CC1(CNC(=O)N2CCn3nc(-c4cccc(Cl)c4)c(C(N)=O)c3C2)CC(F)(F)C1` [Compound 230, 2-(3-Chlorophenyl)-N^5-((3,3-difluoro-1-methylcyclobutyl)methyl)-6,7-dihydropyrazolo[1,5-a] pyrazine-3,5(4H)-dicarboxamide], the IC50 at CK1ε and at CK1δ was 0.01 to 10 nM each time.

As to `CC(C)(NC(=O)N1CCn2nc(-c3ccc(F)c(Cl)c3)c(C(N)=O)c2C1)C1CCC(F)(F)CC1` [Compound 232, 2-(3-Chloro-4-fluorophenyl)-N^5-(2-(4,4-difluorocyclohexyl)propan-2-yl)-6,7-dihydropyrazolo[1,5-a]pyrazine-3,5(4H)-dicarboxamide], the IC50 at CK1ε and at CK1δ was 0.01 to 10 nM in each case.

For the molecule `CC(C)(NC(=O)N1CCn2nc(-c3cccc(Cl)c3)c(C(N)=O)c2C1)C1CCC(F)(F)CC1` [Compound 233, 2-(3-Chlorophenyl)-N^5-(2-(4,4-difluorocyclohexyl)propan-2-yl)-6,7-dihydropyrazolo[1,5-a] pyrazine-3,5(4H)-dicarboxamide], the IC50 at CK1ε and on CK1δ was 0.01 to 10 nM throughout.

On to `CC(C)(NC(=O)N1CCn2nc(-c3ccc(Cl)c(Cl)c3)c(C(N)=O)c2C1)C1CCC(F)(F)CC1` [Compound 234, 2-(3,4-Dichlorophenyl)-N^5-(2-(4,4-difluorocyclohexyl)propan-2-yl)-6,7-dihydropyrazolo[1,5-a] pyrazine-3,5(4H)-dicarboxamide], for which the IC50 at CK1ε and on CK1δ was 0.01 to 10 nM each time.

For the molecule `NC(=O)c1c(-c2ccc(F)c(Cl)c2)nn2c1CN(C(=O)NC1(C(F)F)CCC1)CC2` [Compound 235, 2-(3-Chloro-4-fluorophenyl)-N^5-(1-(difluoromethyl)cyclobutyl)-6,7-dihydro pyrazolo[1,5-a]pyrazine-3,5(4H)-dicarboxamide], the IC50 at CK1ε and on CK1δ was 0.01 to 10 nM each time.

Take `NC(=O)c1c(-c2cccc(Cl)c2)nn2c1CN(C(=O)NC1(C(F)F)CCC1)CC2` [Compound 236, 2-(3-Chlorophenyl)-N^5-(1-(difluoromethyl)cyclobutyl)-6,7-dihydropyrazolo[1,5-a] pyrazine-3,5(4H)-dicarboxamide]: the IC50 at CK1ε and at CK1δ was 0.01 to 10 nM each time.

As to `NC(=O)c1c(-c2ccc(Cl)c(Cl)c2)nn2c1CN(C(=O)NC1(C(F)F)CCC1)CC2` [Compound 237, 2-(3,4-Dichlorophenyl)-N^5-(1-(difluoromethyl)cyclobutyl)-6,7-dihydropyrazolo[1,5-a] pyrazine-3,5(4H)-dicarboxamide], the IC50 on CK1ε and at CK1δ was 0.01 to 10 nM each time.

As to `NC(=O)c1c(-c2cccc(Cl)c2)nn2c1CN(C(=O)N[C@@H]1CC[C@@H]1C(F)F)CC2` [Compound 239, 2-(3-Chlorophenyl)-N^5-((1R,2S)-2-(difluoromethyl)cyclobutyl)-6,7-dihydropyrazolo[1,5-a] pyrazine-3,5(4H)-dicarboxamide], the IC50 at CK1ε and at CK1δ was 0.01 to 10 nM in each case.

`NC(=O)c1c(-c2ccc(F)c(Cl)c2)nn2c1CN(C(=O)N[C@@H]1CC[C@H]1COC(F)F)CC2` [Compound 241, 2-(3-Chloro-4-fluorophenyl)-N^5-((1R,2R)-2-((difluoromethoxy)methyl)cyclobutyl)-6,7-dihydropyrazolo[1,5-a]pyrazine-3,5(4H)-dicarboxamide]: the IC50 on CK1ε and at CK1δ was 0.01 to 10 nM each time.

Regarding `NC(=O)c1c(-c2ccc(Cl)c(Cl)c2)nn2c1CN(C(=O)N[C@@H]1CC[C@H]1COC(F)F)CC2` [Compound 243, 2-(3,4-Dichlorophenyl)-N^5-((1R,2R)-2-((difluoromethoxy)methyl)cyclobutyl)-6,7-dihydropyrazolo[1,5-a] pyrazine-3,5(4H)-dicarboxamide], the IC50 at CK1ε and on CK1δ was 0.01 to 10 nM in each case.
